Key:
human recombinant HDAC6 = target: T1, human recombinant HDAC6 (Homo sapiens, UniProt Q9UBN7); assay: HDAC6 enzyme activity inhibition assay (in vitro, fluorimetric); assay type: biochemical; settings: for HDAC6 selectivity (fold): HDAC6 selectivity over HDAC1; for IC50: human recombinant HDAC6, fluorimetric kit, same protocol as HDAC1
T1 construct: purchased Calbiochem 382180
T1 sequence (Q9UBN7 1-1215): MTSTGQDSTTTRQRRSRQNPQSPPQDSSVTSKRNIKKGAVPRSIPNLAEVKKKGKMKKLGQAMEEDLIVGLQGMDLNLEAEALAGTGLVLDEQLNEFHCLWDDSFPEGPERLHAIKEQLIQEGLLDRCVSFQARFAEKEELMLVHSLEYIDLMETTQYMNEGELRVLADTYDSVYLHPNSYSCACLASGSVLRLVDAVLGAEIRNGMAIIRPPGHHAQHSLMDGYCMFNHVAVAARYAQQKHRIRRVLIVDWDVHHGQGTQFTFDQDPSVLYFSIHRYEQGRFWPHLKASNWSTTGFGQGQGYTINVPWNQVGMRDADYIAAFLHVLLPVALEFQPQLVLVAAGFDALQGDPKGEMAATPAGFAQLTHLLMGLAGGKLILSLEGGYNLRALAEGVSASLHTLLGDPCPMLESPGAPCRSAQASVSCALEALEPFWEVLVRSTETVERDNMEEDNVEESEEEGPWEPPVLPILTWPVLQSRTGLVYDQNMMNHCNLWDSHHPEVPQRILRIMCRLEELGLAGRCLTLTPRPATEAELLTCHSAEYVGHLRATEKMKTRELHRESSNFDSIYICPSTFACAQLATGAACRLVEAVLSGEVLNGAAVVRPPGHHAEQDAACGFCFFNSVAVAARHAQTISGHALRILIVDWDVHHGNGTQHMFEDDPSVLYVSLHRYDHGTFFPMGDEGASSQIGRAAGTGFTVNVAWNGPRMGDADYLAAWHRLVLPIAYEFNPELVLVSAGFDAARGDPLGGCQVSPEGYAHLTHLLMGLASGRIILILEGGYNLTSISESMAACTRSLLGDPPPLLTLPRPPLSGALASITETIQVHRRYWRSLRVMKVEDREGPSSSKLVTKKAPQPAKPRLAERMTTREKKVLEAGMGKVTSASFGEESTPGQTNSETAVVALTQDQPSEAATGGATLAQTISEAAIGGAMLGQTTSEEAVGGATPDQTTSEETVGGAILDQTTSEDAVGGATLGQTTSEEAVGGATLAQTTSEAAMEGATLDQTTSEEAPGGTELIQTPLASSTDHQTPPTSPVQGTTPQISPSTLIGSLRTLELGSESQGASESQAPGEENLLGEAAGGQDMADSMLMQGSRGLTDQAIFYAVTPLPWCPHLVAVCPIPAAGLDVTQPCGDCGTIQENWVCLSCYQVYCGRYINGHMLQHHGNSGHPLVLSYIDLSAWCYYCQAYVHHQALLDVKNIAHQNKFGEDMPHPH
Experimental: (§1) In order to examine the HDAC6 selectivity of the compounds of formula 1 of the present invention by HDAC1 and HDAC6 enzymatic activity inhibition assays, an experiment was performed using a conventional substance as a control.
(§2) HDAC enzyme activity was measured using a HDAC Fluorimetric Drug Discovery Kit (BML-AK511, 516, Enzo Life Science). For the HDAC1 enzyme activity test, human recombinant HDAC1 (BML-SE456) was used as an enzyme source, and Fluor de Lys®-“SIRT1 (BNL-KI177) was used as a substrate. A 5-fold dilution of the compound was seeded into a 96-well plate, and then 0.3 μg of the enzyme and 10 μM of the substrate were added to each well of the plate and allowed to react at 30° C. for 60 minutes. Then, Fluor de Lys® Developer II (BML-KI176) was added thereto and allowed to react for 30 minutes, after which the fluorescence value (Ex 360, Em 460) was measured using a multi-plate reader (Flexstation 3, Molecular Device). The HDAC6 enzyme was tested using human recombinant HDAC6 (382180) (Calbiochem) according to the same protocol as the HDAC1 enzyme activity test method. Based on the resulting values, each IC50 value was calculated using GraphPad Prism4.0 program.

human recombinant HDAC1 = target: T2, human recombinant HDAC1 (Homo sapiens, UniProt Q13547); assay: HDAC1 enzyme activity inhibition assay (in vitro, fluorimetric); assay type: biochemical; settings: human recombinant HDAC1, fluorimetric kit, 30° C. 60 minutes
T2 construct: purchased Enzo Life Science BML-SE456
T2 sequence (Q13547 whole entry): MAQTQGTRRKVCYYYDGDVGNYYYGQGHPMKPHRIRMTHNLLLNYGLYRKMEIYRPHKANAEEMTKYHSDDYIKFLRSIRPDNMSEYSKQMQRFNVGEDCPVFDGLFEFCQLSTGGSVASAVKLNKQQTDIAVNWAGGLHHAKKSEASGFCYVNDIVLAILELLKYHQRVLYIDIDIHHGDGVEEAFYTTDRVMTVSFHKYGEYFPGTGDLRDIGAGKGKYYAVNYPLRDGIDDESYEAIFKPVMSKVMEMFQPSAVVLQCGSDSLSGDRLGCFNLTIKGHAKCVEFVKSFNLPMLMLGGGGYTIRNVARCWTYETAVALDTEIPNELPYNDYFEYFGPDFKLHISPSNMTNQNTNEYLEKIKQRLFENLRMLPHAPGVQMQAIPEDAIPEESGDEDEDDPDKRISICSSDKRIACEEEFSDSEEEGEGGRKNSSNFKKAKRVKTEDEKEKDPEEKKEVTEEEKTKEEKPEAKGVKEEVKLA
Experimental: as §1, §2

| Structure (SMILES) | HDAC6 selectivity (fold) (human recombinant HDAC6) | IC50 (human recombinant HDAC6) [nM] | IC50 (human recombinant HDAC1) [nM] |
| --- | --- | --- | --- |
| Cc1ccccc1NC(=O)N1C[C@@H](C)N(Cc2ccc(C(=O)NO)cc2)[C@@H](C)C1 [Compound 166, (3R,5S)-4-(4-(hydroxycarbamoyl)benzyl)-3,5-dimethyl-N-o-tolylpiperazine-1-carboxamide] | 10 | 452 | 4300 |
| Cc1cccc(NC(=S)N2C[C@@H](C)N(Cc3ccc(C(=O)NO)cc3)[C@@H](C)C2)c1 [Compound 189, 4-(((2S,6R)-2,6-dimethyl-4-(m-tolylcarbamothioyl)piperazin-1-yl)methyl)-N-hydroxybenzamide] | 10 | 303 | 3000 |
| C[C@@H]1CN(CC2CCC(C(=O)NO)CC2)C[C@H](C)N1Cc1ccccc1 (stereo partly drawn) [Compound 822, 4-(((3R,5S)-4-benzyl-3,5-dimethylpiperazin-1-yl)methyl)-N-hydroxycyclohexane-1-carboxamide] | >35 | 280 | > 10000 |
| C[C@@H]1CN(Cc2cc3cc(C(=O)NO)ccc3o2)C[C@H](C)N1Cc1ccccc1 [Compound 574, 2-(((3R,5S)-4-benzyl-3,5-dimethylpiperazin-1-yl)methyl)-N-hydroxybenzofuran-5-carboxamide] | 4 | 810 | 3900 |
| C[C@@H]1CN(Cc2ccc(C(=O)NO)cc2)C[C@H](C)N1Cc1ccccc1 [Compound 084, 4-(((3R,5S)-4-benzyl-3,5-dimethylpiperazin-1-yl)methyl)-N-hydroxybenzamide] | – | 23 | 11900 |
| C[C@@H]1CN(Cc2ccc(C(=O)NO)cc2)C[C@H](C)N1C(=O)Cc1cccc(F)c1 [Compound 222, 4-(((3R,5S)-4-(2-(3-fluorophenyl)acetyl)-3,5-dimethylpiperazin-1-yl)methyl)-N-hydroxybenzamide] | 16 | 100 | 1600 |
| CC(=O)N1CCN(Cc2ccc(CN3[C@H](C)CN(Cc4ccc(C(=O)NO)cc4)C[C@@H]3C)cc2)CC1 [Compound 486, 4-(((3R,5S)-4-(4-((4-acetylpiperazin-1-yl)methyl)benzyl)-3,5-dimethylpiperazin-1-yl)methyl)-N-hydroxybenzamide] | >79 | 126 | > 10000 |
| CC(C)N1CC=C(c2ccccc2CN2[C@H](C)CN(Cc3ccc(C(=O)NO)cc3)C[C@@H]2C)CC1 [Compound 484, N-hydroxy-4-(((3R,5S)-4-(2-(1-isopropyl-1,2,3,6-tetrahydropyridin-4-yl)benzyl)-3,5-dimethylpiperazin-1-yl)methyl)benzamide] | 151 | 130 | 19600 |
| C[C@@H]1CN(C(=O)c2ccccc2Cl)C[C@H](C)N1Cc1ccc(C(=O)NO)cc1 [Compound 108, 4-(((2S,6R)-4-(2-chlorobenzoyl)-2,6-dimethylpiperazin-1-yl)methyl)-N-hydroxybenzamide] | 79 | 166 | 13100 |
| C[C@@H]1CN(Cc2ccccc2C2=CCOCC2)C[C@H](C)N1Cc1ccc(C(=O)NO)cc1 [Compound 351, 4-(((2S,6R)-4-(2-(3,6-dihydro-2H-pyran-4-yl)benzyl)-2,6-dimethylpiperazin-1-yl)methyl)-N-hydroxybenzamide] | 15 | 351 | 5100 |
| C[C@@H]1CN(CCc2ccc(C(=O)NO)cc2)C[C@H](C)N1Cc1ccccc1 [Compound 218, 4-(2-((3R,5S)-4-benzyl-3,5-dimethylpiperazin-1-yl)ethyl)-N-hydroxybenzamide] | 15 | 749 | 11100 |
| C[C@@H]1CN(C(=O)c2cccc(-c3ccncc3)c2)C[C@H](C)N1Cc1ccc(C(=O)NO)cc1 [Compound 260, 4-(((2S,6R)-2,6-dimethyl-4-(3-(pyridin-4-yl)benzoyl)piperazin-1-yl)methyl)-N-hydroxybenzamide] | 3 | 529 | 1700 |
| C[C@@H]1CN(Cc2ccc(C(=O)NO)cc2)C[C@H](C)N1C(=O)c1cccc(C2=CCOCC2)c1 [Compound 244, 4-(((3R,5S)-4-(3-(3,6-dihydro-2H-pyran-4-yl)benzoyl)-3,5-dimethylpiperazin-1-yl)methyl)-N-hydroxybenzamide] | 35 | 97 | 3400 |
| C[C@@H]1CN(Cc2ccc(C(=O)NO)cc2)C[C@H](C)N1C(=O)Cc1cccc(-c2ccccc2)c1 [Compound 234, 4-(((3R,5S)-4-(2-([1,1′-biphenyl]-3-yl)acetyl)-3,5-dimethylpiperazin-1-yl)methyl)-N-hydroxybenzamide] | 17 | 512 | 8900 |
| C[C@@H]1CN(Cc2ccc(C(=O)NO)cc2)C[C@H](C)N1Cc1cocn1 [Compound 354, 4-(((3R,5S)-3,5-dimethyl-4-(oxazol-4-ylmethyl)piperazin-1-yl)methyl)-N-hydroxybenzamide] | >2000 | 5 | > 10000 |
| C[C@@H]1CN(Cc2ccc(/C=C/C(=O)NO)cc2)C[C@H](C)N1C(=O)Nc1cccc(-n2cccc2)c1 [Compound 321, (2S,6R)-N-(3-(1H-pyrrol-1-yl)phenyl)-4-(4-((E)-3-(hydroxyamino)-3-oxoprop-1-en-1-yl)benzyl)-2,6-dimethylpiperazine-1-carboxamide] | 8 | 125 | 1100 |
| C[C@@H]1CN(Cc2ccc(C(=O)NO)cc2)C[C@H](C)N1C(=O)c1ccccc1Cl [Compound 120, 4-(((3R,5S)-4-(2-chlorobenzoyl)-3,5-dimethylpiperazin-1-yl)methyl)-N-hydroxybenzamide] | 304 | 18 | 5500 |
| C[C@@H]1CN(Cc2ccc(-c3cccs3)cc2)C[C@H](C)N1Cc1ccc(C(=O)NO)cc1 [Compound 302, 4-(((2S,6R)-2,6-dimethyl-4-(4-(thiophen-2-yl)benzyl)piperazin-1-yl)methyl)-N-hydroxybenzamide] | 3 | 1130 | 3600 |
| C[C@@H]1CN(C(=O)c2cccs2)C[C@H](C)N1Cc1ccc(C(=O)NO)cc1 [Compound 114, 4-(((2S,6R)-2,6-dimethyl-4-(thiophene-2-carbonyl)piperazin-1-yl)methyl)-N-hydroxybenzamide] | 13 | 185 | 2400 |
| CC(C)CCN1CCN(Cc2cccc(C(=O)N3[C@H](C)CN(Cc4ccc(C(=O)NO)cc4)C[C@@H]3C)c2)CC1 [Compound 442, N-hydroxy-4-(((3R,5S)-4-(3-((4-isopentylpiperazin-1-yl)methyl)benzoyl)-3,5-dimethylpiperazin-1-yl)methyl)benzamide] | 65 | 120 | 7800 |
| C[C@@H]1CN(Cc2cccc(CN3CCCC3)c2)C[C@H](C)N1Cc1ccc(/C=C/C(=O)NO)cc1 [Compound 475, (E)-3-(4-(((2S,6R)-2,6-dimethyl-4-(3-(pyrrolidin-1-ylmethyl)benzyl)piperazin-1-yl)methyl)phenyl)-N-hydroxyacrylamide] | 7 | 114 | 800 |
